According to PMC8219695 (Nature Communications, 2021):
“And” between values parts separate entries of the source, which are not always exact repeats. Equal values may be shown once.

Key:
[1] = biological target: T1, hMOR (Homo sapiens, UniProt P35372); assay: cell-based
T1 construct: expressed in transfected cells; plasmid a gift from Dr. Nevin Lambert

[2] = biological target: T2, mMOR (Mus musculus, UniProt P42866); assay: CAMYEL BRET cAMP agonist assay at mMOR; assay type: cell-based; conditions: mMOR; for cAMP %: single replicates, source data Fig 6b, listed as C11-F-7OH (22)
T2 construct: signal peptide (heterologous, not specified) (N); expressed in transfected cells; pcDNA3.1(+) construct made in house
T2 sequence (P42866 whole entry): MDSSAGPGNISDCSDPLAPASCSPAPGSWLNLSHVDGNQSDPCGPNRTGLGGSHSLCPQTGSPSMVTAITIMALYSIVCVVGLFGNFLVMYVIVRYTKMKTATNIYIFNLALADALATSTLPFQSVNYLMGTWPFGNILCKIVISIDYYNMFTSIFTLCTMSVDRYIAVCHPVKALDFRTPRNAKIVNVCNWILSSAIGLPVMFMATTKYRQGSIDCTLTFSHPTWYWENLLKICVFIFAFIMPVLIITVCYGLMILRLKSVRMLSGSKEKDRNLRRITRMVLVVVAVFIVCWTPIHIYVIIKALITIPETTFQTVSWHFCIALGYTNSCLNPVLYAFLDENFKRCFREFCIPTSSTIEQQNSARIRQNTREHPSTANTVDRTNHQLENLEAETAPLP

[3] = test system: CD1 mice; assay: Tail-flick antinociception in CD1 mice; assay type: in vivo, mouse; conditions: for Tail flick (%MPE), average / Tail flick latency in secs, Av / Tail flick (%MPE) / Tail flick latency / Tail flick latency in secs, mean: sc; for Tail flick (%MPE), average / Tail flick latency in secs, Av: average of 11 animals; for Tail flick (%MPE) / Tail flick latency: individual animals; for Tail flick latency in secs, mean: mean of 8 animals
[4] = biological target: hKOR (Homo sapiens, UniProt P41145); assay: CAMYEL BRET cAMP agonist assay at hKOR; assay type: cell-based; conditions: individual replicates, Supplementary Figure 8A source data
Sequence of hKOR (P41145 whole entry): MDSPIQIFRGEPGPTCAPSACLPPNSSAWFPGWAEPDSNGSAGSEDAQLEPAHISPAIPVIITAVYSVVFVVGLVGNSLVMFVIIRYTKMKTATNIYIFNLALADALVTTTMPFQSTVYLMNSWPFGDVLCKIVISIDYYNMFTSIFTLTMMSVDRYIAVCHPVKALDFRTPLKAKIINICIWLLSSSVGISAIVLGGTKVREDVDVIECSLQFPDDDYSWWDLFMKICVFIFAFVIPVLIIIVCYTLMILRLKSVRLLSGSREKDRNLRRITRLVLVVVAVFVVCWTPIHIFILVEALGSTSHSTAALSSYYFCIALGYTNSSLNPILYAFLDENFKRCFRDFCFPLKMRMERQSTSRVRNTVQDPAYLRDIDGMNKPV

[5] = biological target: hDOR (Homo sapiens, UniProt P41143); assay: CAMYEL BRET cAMP agonist assay at hDOR; assay type: cell-based; conditions: Log[drug] (M) -5; single replicate values, Supplementary Figure 7A
Sequence of hDOR (P41143 whole entry): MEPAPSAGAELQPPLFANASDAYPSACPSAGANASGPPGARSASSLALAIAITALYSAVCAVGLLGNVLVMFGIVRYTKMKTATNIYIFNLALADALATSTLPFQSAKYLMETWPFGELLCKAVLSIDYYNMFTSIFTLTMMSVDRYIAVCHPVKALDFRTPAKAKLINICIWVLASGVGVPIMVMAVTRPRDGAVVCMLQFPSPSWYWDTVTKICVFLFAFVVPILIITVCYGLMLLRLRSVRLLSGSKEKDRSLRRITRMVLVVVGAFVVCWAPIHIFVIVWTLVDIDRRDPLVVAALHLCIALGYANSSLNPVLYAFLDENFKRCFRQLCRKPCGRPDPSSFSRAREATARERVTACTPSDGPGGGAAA

T1 sequence (P35372 whole entry): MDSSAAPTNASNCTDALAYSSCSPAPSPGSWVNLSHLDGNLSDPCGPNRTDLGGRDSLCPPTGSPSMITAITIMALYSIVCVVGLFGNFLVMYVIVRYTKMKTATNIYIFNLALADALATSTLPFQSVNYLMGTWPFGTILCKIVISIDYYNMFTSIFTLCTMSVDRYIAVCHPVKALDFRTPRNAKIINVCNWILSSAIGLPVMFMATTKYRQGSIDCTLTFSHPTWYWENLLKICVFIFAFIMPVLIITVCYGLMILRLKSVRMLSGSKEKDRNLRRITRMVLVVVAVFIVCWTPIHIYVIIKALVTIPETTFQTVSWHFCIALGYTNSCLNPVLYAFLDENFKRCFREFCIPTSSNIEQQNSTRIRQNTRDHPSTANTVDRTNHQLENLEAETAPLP

CC[C@@H]1CN2CC[C@@]3(O)C(=Nc4cc(F)cc(OC)c43)[C@@H]2C[C@@H]1/C(=C\OC)C(=O)OC [11-F-7OH (22), 11-Fluoro-7-hydroxymitragynine]
IC50 [1]: 0.59 µM
cAMP % ([2]; Log[drug] (M) -5): 18.6612% and 13.4113% and 8.551% and 30.7876% and 22.9326% and 28.8572% and 20.3955% and 21.355% and 24.4984%
cAMP % ([2]; Log[drug] (M) -6): 25.4304% and 7.798% and 14.3775% and 23.1589% and 22.9335% and 14.5614% and 26.2834% and 10.6621% and 13.744%
cAMP % ([2]; Log[drug] (M) -7): 4.791% and 10.9715% and 7.661% and 21.2718% and 20.4101% and 18.8827% and 13.0494% and 8.164% and 16.1975%
cAMP % ([2]; Log[drug] (M) -8): 1.666% and 6.134% and 7.138% and 7.653% and 6.95% and 8.768% and 3.363% and -0.1101% and 16.7433%
cAMP % ([2]; Log[drug] (M) -9): 0.8145% and -7.096% and 6.2815% and 3.889% and -6.162% and 2.273% and -4.16% and 0.06827% and 4.092%
cAMP % ([2]; Log[drug] (M) -10): 13.6379% and 11.7751% and 16.0473% and 16.5566% and -2.169% and 7.345% and 0.7238% and 2.035% and 11.7782%
cAMP % ([2]; Log[drug] (M) -11): 20.0905% and 12.8035% and 2.268% and 1.246% and -1.253% and 18.3526% and 6.666% and -0.8467% and -5.17%
cAMP % ([2]; Log[drug] (M) -13, cAMP inhibition as % of DAMGO): 13.7634% and 17.6649% and 9.384% and 11.7249% and -6.349% and 6.202% and -0.02358% and 4.732% and 0.04545%
Emax ([2]; maximal inhibitory effect on cAMP levels relative to DAMGO): 21%
EC50 ([2]; n = 3, read-out: EC50): 0.097 µM
duration of residual analgesic effect ([3]; 5 mg/kg s.c., CD1 mice): at least 120 min
time of peak analgesic effect post injection ([3]; 5 mg/kg s.c., CD1 mice): 15 min
partial analgesic efficacy ([3]; 5 mg/kg s.c., CD1 mice, tail-flick): < 40 % MPE
Tail flick (%MPE), average ([3]; 5 mg/kg, 15 min): 38 %MPE
Tail flick latency in secs, Av ([3]; 5 mg/kg, 15 min): 5.1 s
Tail flick (%MPE) ([3]; 5 mg/kg, 15 min): 53 %MPE and 57 %MPE and 20 %MPE and 21 %MPE and 30 %MPE (2×) and 35 %MPE and 62 %MPE and 25 %MPE and 54 %MPE and 27 %MPE
Tail flick latency ([3]; 5 mg/kg, 15 min): 6.3 secs and 6.7 secs and 3.5 secs and 4.2 secs (2×) and 4.9 secs (2×) and 4.3 secs and 7.0 secs and 4.0 secs and 6.6 secs
Tail flick (%MPE), average ([3]; 5 mg/kg, 30 min): 32 %MPE
Tail flick latency in secs, Av ([3]; 5 mg/kg, 30 min): 4.7 s
Tail flick (%MPE) ([3]; 5 mg/kg, 30 min): 15 %MPE and 100 %MPE and 37 %MPE and 11 %MPE and 14 %MPE and 21 %MPE and 19 %MPE and 56 %MPE and 32 %MPE and 4 %MPE and 38 %MPE
Tail flick latency ([3]; 5 mg/kg, 30 min): 3.4 secs (2×) and 10.0 secs and 4.9 secs and 3.8 secs and 3.6 secs (2×) and 6.4 secs and 4.6 secs and 2.9 secs and 5.1 secs
Tail flick (%MPE), average ([3]; 5 mg/kg, 60 min): 13 %MPE
Tail flick latency in secs, Av ([3]; 5 mg/kg, 60 min): 3.3 s
Tail flick (%MPE) ([3]; 5 mg/kg, 60 min): 15 %MPE and 34 %MPE and 31 %MPE and -9 %MPE and -7.53 %MPE and 10 %MPE and 8 %MPE and 33 %MPE and 11 %MPE and 2.7 %MPE and 18 %MPE
Tail flick latency ([3]; 5 mg/kg, 60 min): 3.4 secs and 4.9 secs and 4.4 secs and 1.9 secs and 2.2 secs and 2.7 secs and 2.8 secs (2×) and 4.6 secs and 2.9 secs and 3.5 secs
Tail flick (%MPE), average ([3]; 5 mg/kg, 120 min): 15 %MPE
Tail flick latency in secs, Av ([3]; 5 mg/kg, 120 min): 3.4 s
Tail flick (%MPE) ([3]; 5 mg/kg, 120 min): 38 %MPE and 44 %MPE and 49 %MPE and -4 %MPE and -12 %MPE and 6 %MPE (2×) and 3.8 %MPE and -1.23 %MPE and 9 %MPE and 22 %MPE
Tail flick latency ([3]; 5 mg/kg, 120 min): 5.2 secs and 5.7 secs and 5.9 secs and 2.3 secs (2×) and 1.8 secs (2×) and 2.4 secs and 2.5 secs and 3.3 secs and 3.8 secs
Tail flick (%MPE) ([3]; Fig 9b, 5 mg/kg): 17.7 %MPE and 17.8 %MPE and 17.3 %MPE and 17.1 %MPE and 26.9 %MPE and 34.1 %MPE and 38.3 %MPE and 27.3 %MPE
Tail flick latency ([3]; Fig 9b, 5 mg/kg): 3.5 s and 4.0 s and 3.3 s and 3.7 s and 4.3 s and 4.6 s and 5.0 s and 4.4 s
Tail flick latency in secs, mean ([3]; Fig 9b, 5 mg/kg): 4.1 s
Tail flick (%MPE) ([3]; Fig 9b, 10 mg/kg): 24.1 %MPE and 13.7 %MPE and 25.9 %MPE and 28.9 %MPE and 26.9 %MPE and 39.0 %MPE and 32.1 %MPE and 27.3 %MPE
Tail flick latency ([3]; Fig 9b, 10 mg/kg): 4.0 secs (2×) and 3.7 secs and 4.6 secs and 4.3 secs and 5.0 secs and 4.5 secs and 4.4 secs
Tail flick latency in secs, mean ([3]; Fig 9b, 10 mg/kg): 4.3 s
Tail flick (%MPE) ([3]; Fig 9b, 25 mg/kg): 29.1 %MPE and 27.4 %MPE and 42.0 %MPE and 38.2 %MPE and 23.1 %MPE and 36.6 %MPE and 37.0 %MPE and 44.2 %MPE
Tail flick latency ([3]; Fig 9b, 25 mg/kg): 4.4 secs and 4.7 secs and 5.3 secs (2×) and 4.0 secs and 4.8 secs and 4.9 secs and 5.7 secs
Tail flick latency in secs, mean ([3]; Fig 9b, 25 mg/kg): 4.9 s
Agonist activity of 7OH analogs at hKOR ([4]; Log [drug](M) -5): 12.7288 and 7.6957 and 5.691 and 5.203 and 10.1397 and 6.346 and 11.5584 and 16.2136 and 8.114
Agonist activity of 7OH analogs at hKOR ([4]; Log [drug](M) -6): 4.1678 and -6.234 and -2.623 and -0.4626 and 5.449 and 14.973 and 13.878 and 7.062 and 8.9598
Agonist activity of 7OH analogs at hKOR ([4]; Log [drug](M) -7): 15.7968 and 0.7988 and 22.403 and -2.445 and 4.302 and 10.7854 and 12.9808 and 8.955 and 17.6223
Agonist activity of 7OH analogs at hKOR ([4]; Log [drug](M) -8): 4.851 and -3.884 and -5.474 and 6.013 and -0.3123 and 2.012 and 9.524 and 10.5291 and 12.8743
Agonist activity of 7OH analogs at hKOR ([4]; Log [drug](M) -9): -6.272 and 9.969 and -14.9547 and 3.87 and -4.029 and 4.071 and 2.29 and -8.644 and 9.488
Agonist activity of 7OH analogs at hKOR ([4]; Log [drug](M) -10): -8.62 and -13.3054 and -5.371 and -6.566 and 5.6803 and 0.6674 and -0.4006 and -4.716 and 0.9825
Agonist activity of 7OH analogs at hKOR ([4]; Log [drug](M) -11): -18.0186 and -16.1556 and -9.7654 and -4.481 and 6.079 and -3.726 and -2.3334 and -2.856 and -4.795
Agonist activity of 7OH analogs at hKOR ([4]; Log [drug](M) -13): 2.027 and -5.796 and 3.769 and 2.62 and 6.896 and -9.516 and -3.456 and 3.959 and -0.5033
Agonist activity of 7OH analogs at hDOR [5]: 35.2154 and 37.8271 and 20.1668 and 20.0459 and 27.5701 and 32.2497 and 21.4666 and 22.179 and 20.5682
